Data on one compound can be found in patent US8247426B2, “Crystalline irinotecan hydrochloride and methods for its preparation” (Antibioticos S.p.A., priority 2008, dated 2012).

Structures can show the parent of a compound that is named as a salt. Bounds are passed on as bounds.

This data set can be described thus: solubility in water at room temperature. The data set is classed as physicochemical.

As for `CCc1c2c(nc3ccc(OC(=O)N4CCC(N5CCCCC5)CC4)cc13)-c1cc3c(c(=O)n1C2)COC(=O)[C@]3(O)CC` [form H, irinotecan hydrochloride], the solubility (in general, how much of the substance goes into solution per volume) was greater than 20 mg/mL.
